Laboratory results published in PubChem BioAssay (NCI).
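Cultured in 96-well plates, cells were exposed to test compound for 48 hours across five concentrations. GI50: concentration for 50% inhibition of growth. TGI: total growth inhibition.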 Where a SMILES comes first, the peptide text is derived from it. [ ]: non-standard residue; d: D form. The star is where a group is joined. Lauroyl = CCCCCCCCCCCC(=O)*; Aib = CC(C)(N)C(=O)O; βAla = NCCC(=O)O

Assays:
Experiment in all cases: NCI tumour cell line growth inhibition, 48 h
[1] = tested on: OVCAR-3 ovarian
[2] = tested on: SK-MEL-5 melanoma
[3] = tested on: IGROV1 ovarian
[4] = tested on: HS 578T breast
[5] = tested on: MDA-MB-231 breast
[6] = tested on: KM12 colon
[7] = tested on: NCI-H23 lung
[8] = tested on: PC-3 prostate
[9] = tested on: HOP-62 NSCLC
[10] = tested on: DU-145 prostate
[11] = tested on: CCRF-CEM leukemia
[12] = tested on: UO-31 renal
[13] = tested on: RPMI-8226 leukemia
[14] = tested on: SF-295 CNS
[15] = tested on: HOP-92 NSCLC
[16] = tested on: SR leukemia
[17] = tested on: ACHN renal
[18] = tested on: SNB-75 CNS
[19] = tested on: OVCAR-8 ovarian
[20] = tested on: EKVX NSCLC
[21] = tested on: MCF7 breast
[22] = tested on: RXF 393 renal
[23] = tested on: M14 melanoma
[24] = tested on: HCT-116 colon
[25] = tested on: OVCAR-5 ovarian
[26] = tested on: UACC-62 melanoma
[27] = tested on: SN12C renal
[28] = tested on: HT29 colon
[29] = tested on: OVCAR-4 ovarian
[30] = tested on: MDA-MB-435
[31] = tested on: MALME-3M melanoma
[32] = tested on: SK-OV-3 ovarian
[33] = tested on: 786-0 renal
[34] = tested on: SNB-19 CNS
[35] = tested on: U251 CNS
[36] = tested on: UACC-257 melanoma
[37] = tested on: NCI-H226 lung
[38] = tested on: SF-539 CNS
[39] = tested on: NCI-H522 lung
[40] = tested on: CAKI-1 renal
[41] = tested on: TK-10 renal
[42] = tested on: K-562 leukemia
[43] = tested on: SF-268 CNS
[44] = tested on: A498 renal
[45] = tested on: HCC-2998 colon
[46] = tested on: SW-620 colon
[47] = tested on: A549 NSCLC
[48] = tested on: COLO 205 colon
[49] = tested on: T-47D breast
[50] = tested on: BT-549 breast
[51] = tested on: NCI-H460 lung
[52] = tested on: SK-MEL-28 melanoma
[53] = tested on: HCT-15 colon
[54] = tested on: LOX IMVI melanoma
[55] = tested on: SK-MEL-2 melanoma
[56] = tested on: NCI/ADR-RES ovarian

CCCCCCCCCCCC(=O)NC(C)(C)C(=O)N1CCCC1C(=O)NC(C)(C)C(=O)NC(C)(C)C(=O)N1CCCC1C(=O)NC(C)(C)C(=O)NC(C)(C)C(=O)N1CCCC1C(=O)NC(C)C(=O)NCCC(=O)NC(C)C(=O)NC(C)(C)C(=O)NC(C)(C)C(=O)NC(C)(C)C(=O)NCCC(=O)NC(C)(C)C(=O)NC(C)(C)C(=O)NC(C)(C)C(=O)NC(C)C(=O)NCCC(=O)O (configuration not stated) (Lauroyl-[Aib]P[Aib][Aib]P[Aib][Aib]PA[βAla]A[Aib][Aib][Aib][βAla][Aib][Aib][Aib]A[βAla]-OH; configuration not given here)
GI50 [1]: 444 nM
TGI [1]: 1130 nM
GI50 [2]: 327 nM
TGI [2]: 652 nM
GI50 [3]: 377 nM
TGI [3]: 1170 nM
GI50 [4]: 271 nM
TGI [4]: 711 nM
GI50 [5]: 344 nM
TGI [5]: 780 nM
GI50 [6]: 478 nM
TGI [6]: 1320 nM
GI50 [7]: 303 nM
TGI [7]: 583 nM
GI50 [8]: 319 nM
TGI [8]: 689 nM
GI50 [9]: 325 nM
TGI [9]: 683 nM
GI50 [10]: 441 nM
TGI [10]: 1110 nM
GI50 [11]: 375 nM
TGI [11]: 818 nM
GI50 [12]: 669 nM
TGI [12]: 1700 nM
GI50 [13]: 166 nM
TGI [13]: 561 nM
GI50 [14]: 349 nM
TGI [14]: 873 nM
GI50 [15]: 238 nM
TGI [15]: 515 nM
GI50 [16]: 352 nM
TGI [16]: 884 nM
GI50 [17]: 341 nM
TGI [17]: 667 nM
GI50 [18]: 238 nM
TGI [18]: 527 nM
GI50 [19]: 357 nM
TGI [19]: 827 nM
GI50 [20]: 349 nM
TGI [20]: 790 nM
GI50 [21]: 368 nM
TGI [21]: 906 nM
GI50 [22]: 291 nM
TGI [22]: 527 nM
GI50 [23]: 387 nM
TGI [23]: 1010 nM
GI50 [24]: 300 nM
TGI [24]: 547 nM
GI50 [25]: 467 nM
TGI [25]: 1590 nM
GI50 [26]: 325 nM
TGI [26]: 724 nM
GI50 [27]: 296 nM
TGI [27]: 672 nM
GI50 [28]: 480 nM
TGI [28]: 1350 nM
GI50 [29]: 296 nM
TGI [29]: 545 nM
GI50 [30]: 422 nM
TGI [30]: 1040 nM
GI50 [31]: 346 nM
TGI [31]: 796 nM
GI50 [32]: 325 nM
TGI [32]: 623 nM
GI50 [33]: 280 nM
TGI [33]: 513 nM
GI50 [34]: 423 nM
TGI [34]: 1210 nM
GI50 [35]: 254 nM
TGI [35]: 500 nM
GI50 [36]: 387 nM
TGI [36]: 1080 nM
GI50 [37]: 435 nM
TGI [37]: 1230 nM
GI50 [38]: 298 nM
TGI [38]: 576 nM
GI50 [39]: 307 nM
TGI [39]: 621 nM
GI50 [40]: 279 nM
TGI [40]: 536 nM
GI50 [41]: 388 nM
TGI [41]: 1180 nM
GI50 [42]: 337 nM
TGI [42]: 822 nM
GI50 [43]: 404 nM
TGI [43]: 1100 nM
GI50 [44]: 375 nM
TGI [44]: 860 nM
GI50 [45]: 533 nM
TGI [45]: 1960 nM
GI50 [46]: 400 nM
TGI [46]: 986 nM
GI50 [47]: 310 nM
TGI [47]: 635 nM
GI50 [48]: 344 nM
TGI [48]: 721 nM
GI50 [49]: 440 nM
TGI [49]: 1440 nM
GI50 [50]: 151 nM
TGI [50]: 383 nM
GI50 [51]: 310 nM
TGI [51]: 577 nM
GI50 [52]: 437 nM
TGI [52]: 1360 nM
GI50 [53]: 322 nM
TGI [53]: 652 nM
GI50 [54]: 286 nM
TGI [54]: 535 nM
GI50 [55]: 345 nM
TGI [55]: 765 nM
GI50 [56]: 370 nM
TGI [56]: 833 nM
